Measurements from US9012403B2, “Peptides as active agents to stabilize biological barriers” (XiberScience GmbH, priority 2010, dated 2015).
Marks after values point to notes of the source that are not given here.

Experiments:
[1] = system: Phosphorylated Myosin Light Chain (MLC) and actin stress fibers; assay: MLC phosphorylation and actin stress fiber formation in HpMec cells (microscopy score); assay type: cell-based; settings: Thrombin 1 U/ml, with or without peptide 50 μg/ml
Protocol: (§1) To measure MLC phosphorylation and actin stress fiber formation, the following cell lines were used: Caco-2, ECV304 and HpMec. All cells were grown at standard conditions (37° C., 5% CO2 and 95% rH). Culture Medium used: for Caco-2: DMEM+1 mM sodium pyruvate+20% FCS+1% Penicillin Streptomycin; for ECV 304: RPMI 1640+10% FCS+1% Penicillin Streptomycin; and for HpMec: IMDM+25 mM Hepes+10% Human Serum+1% Penicillin Streptomycin+1% L-Glutamine+ECGS/Heparin 2 ml. 4 h before the experiment, cells were starved by serum withdrawal. To induce GEF-activity, cells were stimulated with thrombin, LPS or PMA for the indicated time in presence or absence of 50 μg/ml XIB1-a or XIB1-b. After stimulation, cells were fixed using 4% PFA. Phospho MLC was detected by using the “rabbit anti phosphor-myosin light chain antibody” from Chemicon in a concentration of 3 μl/ml in PBS (Gibco) supplemented with 0.1% Triton X-100. As detection antibody, the Alexa 448 tagged “anti Rabbit IgG Antibody” from Invitrogen was used in a concentration of 0.5 μl/ml in PBS (Gibco) supplemented with 0.1% Triton X-100. Aktin was detected using TRITC-labeled Phalloidin in a concentration of 0.5 μl/ml in PBS (Gibco) supplemented with 0.1% Triton. Stained cells were analyzed by using a Zeiss Laser Scan microscope. Evaluation of the cyto-skeletal activation was performed by 2 independent observers that were blinded to the conditions. Evaluation criteria were set as follows:
(§2) Actin: parallel actin bundles absent=0; distinct bundle formation=1; prominent parallel bundles=2; Phospho-MLC: present at cell poles=0; slight co-localization with actin bundles=1; prominent co-localization with actin bundles=2

[2] = system: Phosphorylated Myosin Light Chain (MLC) and actin stress fibers; assay: MLC phosphorylation and actin stress fiber formation in ECV304 cells (microscopy score); assay type: cell-based; settings: ECV 304, Thrombin 1 U/ml, with or without peptide 50 μg/ml
Protocol: as §1, §2

[3] = system: GTP-bound RhoA; assay: GTP-associated active RhoA in ECV304 membrane fraction (western blot); assay type: cell-based; settings: ECV 304, Thrombin 1 U/ml, with or without peptide 50 μg/ml
Protocol: (§3) To measure the GTP-associated active RhoA, the following cell lines were used: Caco-2, ECV304 and HpMec. All cells were grown at standard conditions (37° C., 5% CO2 and 95% rH). 4 h before the experiment, cells were starved by serum withdrawal. To induce GEF-activity, cells were stimulated with thrombin, LPS or PMA for the indicated time in presence or absence of 50 μg/ml XIB1-a or XIB1-b. After stimulation, membrane fractions were prepared by using the commercial available “Compartemental Protein Extraction Kit” from Biochain Institutes. Membrane fractions were prepared according to the manufacturer instructions. The membrane fraction was separated on 15% polyacrylamide gel according to standard procedures of gel electrophoresis. The gels were afterwards blotted on a nitrocellulose membrane according to standard procedures of western blotting. GTP-bound RhoA was detected using RhoA-GTP monoclonal antibody from NewEast Inc. in a dilution of 1:5000. Protein bands were analyzed with the Dolphin-1D Gel analysis system (Wealtec).

[4] = system: GEF; assay: GEF-activity in membrane fractions of ECV304 cells (RhoGEF Exchange Assay); assay type: cell-based; settings: ECV 304, Thrombin 1 U/ml, with or without peptide 50 μg/ml
Protocol: (§4) To measure the GEF-inhibitory effect, the following cell lines were used: Caco-2 (epithelial cells from adeno-carcinoma), ECV304 (epithelial cells from bladder carcinoma) and HpMec (endothelial cells, immortalized pulmonary micro-vascular cells). All cells were grown at standard conditions (37° C., 5% CO2 and 95% relative humidity (rH)). Culture Medium used for Caco-2: DMEM+1 mM sodium pyruvate+20% FCS+1% Penicillin Streptomycin; for ECV 304: RPMI 1640+10% FCS+1% Penicillin Streptomycin; and for HpMec: IMDM+25 mM Hepes+10% Human Serum+1% Penicillin Streptomycin+1% L-Glutamine+ECGS/Heparin 2 ml. 4 h before the experiment, cells were starved by serum withdrawal. To induce GEF-activity, cells were stimulated with thrombin, lipopolysaccharide (LPS) or PMA for the indicated time in presence or absence of 50 μg/ml XIB1-a or XIB1-b. After stimulation, membrane fractions were prepared by using the commercial available “Compartemental Protein Extraction Kit” from Biochain institutes. Membrane fractions were prepared according to the manufacturer instructions. GEF-activity in membrane lysates was determined by using “RhoGEF Exchange Assay Biochem Kit” from Cytoskeleton Inc. according to manufacturer instructions. GEF-activity was measured as fluorescence at using the Fluoroskan Ascent FL 2.6 from Thermo Electron Corporation. The excitation Filter wavelength was set at 355 nm and the emission filter wavelength at 460 nm.

[5] = system: GTP-bound RhoA; assay: GTP-associated active RhoA in HpMec membrane fraction (western blot); assay type: cell-based; settings: for increase in RhoA-activity: HepMec cells, thrombin; for GTP-bound RhoA, relative values compared to unstimulated control (Mean): HpMec, Thrombin 1 U/ml, with or without peptide 50 μg/ml
Protocol: as §3

[6] = system: GEF; assay: GEF-activity in membrane fractions of HpMec cells (RhoGEF Exchange Assay); assay type: cell-based; settings: for increase in GEF-activity: HepMec cells, thrombin; for GEF-activity, relative values compared to unstimulated control (Mean): HpMec, Thrombin 1 U/ml, with or without peptide 50 μg/ml
Protocol: as §4

[7] = system: LPS induced lung injury; assay: LPS induced lung injury, bronchoalveolar lavage; assay type: in vivo; settings: mice, 6 h after LPS, n = 20
Protocol: Male C57Bl/6 Mice (Charles River, Germany) were kept at the animal facility of the Medical University of Vienna, feed with standard diet and water was provided ad libitum. All interventions were performed according to the guide lines of AAALAC (Association for Assessment and Accreditation of Laboratory Animal Care). All experiment were approved by the Ethic committee of the Medical University of Vienna. Mice were anesthetized with isoflouran and treated with 100 ng of LPS (E. coli O55:B5, Sigma Aldrich) intranasally. XIB1-a or XIB1-b was applied either intra-peritoneally (2×2 mg/kg) or via inhalation (2×4 mg/kg), first application was performed concomitantly with LPS administration, the second application was performed 1 h after the LPS inhalation.
The trachea was exposed through a midline incision and canulated with a sterile 20-gauge catheter (BD Venflon™, Becton Dickinson Infusion Therapy, Helsingborg, Sweden). Bilateral broncho-alveolar lavage fluid (BALF) was gained by instilling two 0.5 ml aliquots of sterile saline. Approximately 0.9-1 ml BALF was retrieved per mouse. Total cell numbers were counted from each sample using a hemo-cytometer (Türck chamber), BALF differential cell counts were done on cytospin preparations stained with Giemsa. For protein measurements, BALF was diluted 1:2 in buffer containing 300 mM NaCl, 30 mM Tris, 2 mM MgCl2, 2 mM CaCl2, and Pepstatin A, Leupeptin and Aprotinin (all 20 ng/ml; pH 7.4). Protein levels in BALF were measured using the BCA protein kit according to the manufacturer's instructions (Pierce, Rockford, Ill.).
In addition, the same set-up as described above was used for comparing the impact of XIB1-b compared to Bβ15-42 (PLoS ONE (2009), 4(4): e5391), a peptide derived from fibrin having the sequence […] (SEQ ID NO: 41). Bβ15-42 was added in the same manner as XIB1-b. Again, protein content and cell count of BALF was measured.

[8] = system: Ventilator-Induced Lung Injury (VILI); assay: Ventilator-induced lung injury (VILI) after LPS pre-challenge; assay type: in vivo; settings: mice, LPS + high tidal volume ventilation (LPS-HTV); i.v. 4 mg/kg loading, then 1 mg/kg/h
Protocol: Experiments were performed with healthy C57BL/6 (aged 8-10 weeks, with weights ranging from 19-25 g). All interventions were performed according to the guide lines of AAALAC. All experiment were approved by the Ethic committee of the University of Amsterdam.
Mice were challenged with LPS (dosage: 50 μg per mouse) (or saline), via intranasal injection 2 h before initiation of mechanical ventilation, to induce lung injury.
XIB1-1b (or random peptide) was administered i.v. 10 min before start of mechanical ventilation (dosage: 4 mg/kg loading dose, followed administration i.v. injections 1 mg/kg/h.
A Y-tube connector with 1.0 mm outer diameter and 0.6 mm inner diameter was surgically inserted into the trachea under general anesthesia. Mice were placed in a supine position and connected to a ventilator. Mice were pressure-controlled ventilated with either an inspiratory pressure of 10 cm H2O (resulting in VT˜7.5 mL/kg; low VT, LVT) or an inspiratory pressure of 18 cm H2O (resulting in VT˜15 mL/kg; high VT, HVT). Positive end-expiratory pressure (PEEP) is set at 2 cm H2O with both MV-strategies. The fraction of inspired oxygen was kept at 0.5 throughout the experiment. The inspiration to expiration ratio was kept at 1:1 throughout the experiment.
BALF was obtained by instilling 3 times 0.5 mL aliquots of saline by a 22-gauge Abbocath-T catheter (Abbott, Sligo, Ireland) into the trachea. Approximately, 1.0 mL of BALF was retrieved per mouse and cell counts were determined using a hemacytometer (Beckman Coulter, Fullerton, Calif.). Subsequently, differential counts were done on cytospin preparations stained with a modified Giemsa stain, Diff-Quick (Dade Behring AG, Düdingen, Switzerland). Supernatant was stored at −80° C.
Total protein levels in BALF are determined using a Bradford Protein Assay Kit (OZ Biosciences, Marseille, France) according to manufacturers' instructions with bovine serum albumin as standard. Mouse IgM was determined by ELISA by using anti-Mouse IgM sensitized 96-strip micro-well plates according to manufacturers' instructions (IMMUNO-TEK kit from ZeptoMetrix).

[9] = system: GTP-bound RhoA; assay: GTP-associated active RhoA in Caco-2 membrane fraction (western blot); assay type: cell-based; settings: for GTP-bound RhoA, relative values compared to unstimulated control (Mean): CaCo-2, PMA 1 μg/ml, with or without peptide 50 μg/ml; for increase of RhoA-activity: CaCo-2 cells, PMA-stimulus
Protocol: as §3

[10] = system: Phosphorylated Myosin Light Chain (MLC) and actin stress fibers; assay: MLC phosphorylation and actin stress fiber formation in Caco-2 cells (microscopy score); assay type: cell-based; settings: CaCo-2, PMA 1 μg/ml, with or without peptide 50 μg/ml
Protocol: as §1, §2

[11] = system: GEF; assay: GEF-activity in membrane fractions of Caco-2 cells (RhoGEF Exchange Assay); assay type: cell-based; settings: for GEF-activity, relative values compared to unstimulated control (Mean): CaCo-2, PMA 1 μg/ml, with or without peptide 50 μg/ml
Protocol: as §4

Thrombin [reference compound]
MLC phosphorylation and actin stress fiber formation, evaluation score (Mean) ([1]; 1 min): 4 | MLC phosphorylation and actin stress fiber formation, evaluation score (Mean) ([1]; 5 min): 4 | MLC phosphorylation and actin stress fiber formation, evaluation score (Mean) ([2]; 1 min): 4 | MLC phosphorylation and actin stress fiber formation, evaluation score (Mean) ([2]; 5 min): 4 | GTP-bound RhoA, relative values compared to unstimulated control (Mean) ([3]; 1 min): 4.3 | GTP-bound RhoA, relative values compared to unstimulated control (Mean) ([3]; 5 min): 3.2 | GEF-activity, relative values compared to unstimulated control (Mean) ([4]; 1 min): 5 | GEF-activity, relative values compared to unstimulated control (Mean) ([4]; 5 min): 3.4 | increase in RhoA-activity ([5]; after 1 min): 3.8 fold | increase in RhoA-activity ([5]; after 5 min): 3.2 fold | GTP-bound RhoA, relative values compared to unstimulated control (Mean) ([5]; 1 min): 3.8 | GTP-bound RhoA, relative values compared to unstimulated control (Mean) ([5]; 5 min): 3.2 | increase in GEF-activity ([6]; after 1 min): 3.5 fold | increase in GEF-activity ([6]; after 5 min): 3 fold | GEF-activity, relative values compared to unstimulated control (Mean) ([6]; 1 min): 3.5 | GEF-activity, relative values compared to unstimulated control (Mean) ([6]; 5 min): 3

GHRPLDKKKREEAPSLRPAPPPISGGGYR (/note=“Description of artificial sequence peptide Bbeta 15-42”) [Bβ15-42, a peptide derived from fibrin]
albumine content of BALFs (mean +/ SD) ([7]; comparison with Bβ15-42 (Table 6), intraperitoneal application): 160 ± 20 µg/mL | counts of neutrophils in the BALF (mean +/ SD) ([7]; comparison with Bβ15-42 (Table 6), intratracheal plus intraperitoneal application): 35 +/− 10 neutrophils/ml (× 10^3) | albumine content of BALFs (mean +/ SD) ([7]; comparison with Bβ15-42 (Table 6, last section), intraperitoneal application as printed): 152 ± 35 µg/mL

GGGGGSRRIPL (/note=“Description of artificial sequence variable insert”) [scrambled peptide, scrambled peptide control in the VILI experiment, reference compound]
IgM content in the BALF [8]: No improvement | neutrophil count in the BALF [8]: No improvement | total cell count in the BALF [8]: No improvement | total protein content in the BALF [8]: No improvement

CCCCCCCCCCCCCC(=O)O[C@@H]1[C@@H](C)[C@@]2(O)[C@@H](C=C(CO)C[C@]3(O)C(=O)C(C)=C[C@@H]23)[C@@H]2C(C)(C)[C@]12OC(C)=O [PMA, reference compound]
GTP-bound RhoA, relative values compared to unstimulated control (Mean) ([9]; 1 min): 2.3 | GTP-bound RhoA, relative values compared to unstimulated control (Mean) ([9]; 5 min): 2.0 | increase of RhoA-activity ([9]; after 5 mm of stimulation): 2 fold | increase of RhoA-activity ([9]; after 1 min): 2.3 fold | MLC phosphorylation and actin stress fiber formation, evaluation score (Mean) ([10]; 1 min): 3 | MLC phosphorylation and actin stress fiber formation, evaluation score (Mean) ([10]; 5 min): 3 | GEF-activity, relative values compared to unstimulated control (Mean) ([11]; 1 min): 2.5 | GEF-activity, relative values compared to unstimulated control (Mean) ([11]; 5 min): 1.8 | increase of GEF-activity ([11]; CaCo-2 cells, 1 min PMA-stimulus): 2.5 fold
